Activity calls are given as the source filed them. The rule behind the calls is not given here.
What was measured:
[1] = system: SH-SY5Y; test: Cytotoxicity against human SH-SY5Y cells assessed as reduction in cell viability at 10 to 20 uM incubated for 24 hrs by MTT assay; format: toxicity, cell-based; conditions: dose 10-20 µM
[2] = system: SH-SY5Y; test: Cytotoxicity against human SH-SY5Y cells assessed as cell death at 5 uM incubated for 24 hrs by MTT assay; format: toxicity, cell-based
[3] = molecular target: Advanced glycosylation end product-specific receptor (Homo sapiens, UniProt Q15109); test: Inhibition of biotinylated human RAGE/amyloid beta interaction incubated for 120 mins by ELISA assay
Chain of Advanced glycosylation end product-specific receptor (Q15109 whole entry): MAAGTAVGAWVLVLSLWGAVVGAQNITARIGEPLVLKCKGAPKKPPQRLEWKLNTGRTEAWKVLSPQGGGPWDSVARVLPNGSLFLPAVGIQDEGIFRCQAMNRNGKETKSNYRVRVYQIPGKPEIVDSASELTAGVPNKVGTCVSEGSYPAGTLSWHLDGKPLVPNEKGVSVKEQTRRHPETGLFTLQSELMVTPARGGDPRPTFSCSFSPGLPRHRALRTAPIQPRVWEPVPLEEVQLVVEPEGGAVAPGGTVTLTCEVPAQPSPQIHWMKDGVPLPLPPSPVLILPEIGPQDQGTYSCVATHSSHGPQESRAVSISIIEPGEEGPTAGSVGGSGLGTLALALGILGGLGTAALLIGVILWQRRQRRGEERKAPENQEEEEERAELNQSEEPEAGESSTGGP

[4] = molecular target: Sodium-dependent serotonin transporter (Homo sapiens, UniProt P31645)
Chain of Sodium-dependent serotonin transporter (P31645 whole entry): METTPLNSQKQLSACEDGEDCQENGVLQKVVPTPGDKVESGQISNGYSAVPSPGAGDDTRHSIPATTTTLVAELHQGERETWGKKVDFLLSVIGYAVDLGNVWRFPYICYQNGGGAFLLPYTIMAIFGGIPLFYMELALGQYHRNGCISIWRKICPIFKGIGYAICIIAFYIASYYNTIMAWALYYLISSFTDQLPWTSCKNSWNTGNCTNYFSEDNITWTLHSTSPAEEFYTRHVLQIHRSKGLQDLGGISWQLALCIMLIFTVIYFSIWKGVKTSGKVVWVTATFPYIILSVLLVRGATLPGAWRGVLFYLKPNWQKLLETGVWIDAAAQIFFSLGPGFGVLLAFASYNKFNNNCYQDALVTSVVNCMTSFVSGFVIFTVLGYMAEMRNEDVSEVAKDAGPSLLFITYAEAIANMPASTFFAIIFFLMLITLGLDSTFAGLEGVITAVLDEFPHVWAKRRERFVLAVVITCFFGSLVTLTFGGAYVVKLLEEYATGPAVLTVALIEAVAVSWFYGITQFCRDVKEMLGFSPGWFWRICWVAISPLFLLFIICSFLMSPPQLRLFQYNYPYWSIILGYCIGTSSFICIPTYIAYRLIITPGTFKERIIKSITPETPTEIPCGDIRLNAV

[5] = Oral bioavailability in mouse at 60 mg/kg measured for 0.25 to 24 hrs; format: ADME, organism-based; conditions: in vivo, time 0.25-24 hrs
[6] = Toxicity in ICR mouse assessed as change in heart to body weight ratio at 100 mg/kg, ip administered as single dose and measured after 2 weeks; format: organism-based; conditions: in vivo, 336 h
[7] = Toxicity in ICR mouse assessed as change in kidney to body weight ratio at 100 mg/kg, ip administered as single dose and measured after 2 weeks; format: organism-based; conditions: in vivo, 336 h
[8] = Toxicity in ICR mouse assessed as animal survival at 200 mg/kg, ip administered as single dose measured upto 2 weeks; format: organism-based; conditions: in vivo, 336 h
[9] = Clearance in mouse at 10 mg/kg, iv measured for 0.083 to 24 hrs; format: ADME, organism-based; conditions: in vivo, time 0.083-24 hrs
[10] = Volume of distribution at steady state in mouse at 10 mg/kg, iv measured for 0.083 to 24 hrs; format: ADME, organism-based; conditions: in vivo, time 0.083-24 hrs, read-out: Vdss
[11] = Metabolic stability in mouse liver microsomes assessed as clearance at 100 uM in presence of NADPH and measured for 5 to 60 mins by LC-MS/MS analysis; format: ADME, Microsome; conditions: time 5-60 min, read-out: CLH
[12] = molecular target: CYP2C19 (Homo sapiens, UniProt P33261); test: Inhibition of CYP2C19 in human liver microsomes at 10 uM incubated for 10 mins in presence of NADPH by LC-MS/MS analysis relative to control; format: ADME, Microsome
Chain of CYP2C19 (P33261 whole entry): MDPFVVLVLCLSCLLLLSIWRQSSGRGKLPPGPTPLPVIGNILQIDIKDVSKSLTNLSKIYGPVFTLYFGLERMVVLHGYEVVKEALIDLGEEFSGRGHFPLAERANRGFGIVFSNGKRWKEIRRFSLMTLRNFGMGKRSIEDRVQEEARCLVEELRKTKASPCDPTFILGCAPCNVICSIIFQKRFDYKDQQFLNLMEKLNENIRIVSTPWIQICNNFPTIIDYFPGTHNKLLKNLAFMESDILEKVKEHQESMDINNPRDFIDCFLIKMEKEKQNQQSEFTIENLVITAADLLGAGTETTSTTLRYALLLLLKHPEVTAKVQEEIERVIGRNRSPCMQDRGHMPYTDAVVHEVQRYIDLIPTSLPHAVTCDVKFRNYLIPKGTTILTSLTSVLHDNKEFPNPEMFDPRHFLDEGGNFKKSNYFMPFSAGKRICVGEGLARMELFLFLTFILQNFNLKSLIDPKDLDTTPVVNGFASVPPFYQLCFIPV

[13] = molecular target: T1, CYP1A2 (Homo sapiens, UniProt P05177); test: Inhibition of CYP1A2 in human liver microsomes at 10 uM incubated for 10 mins in presence of NADPH by LC-MS/MS analysis relative to control; format: ADME, Microsome
T1 sequence (P05177 whole entry): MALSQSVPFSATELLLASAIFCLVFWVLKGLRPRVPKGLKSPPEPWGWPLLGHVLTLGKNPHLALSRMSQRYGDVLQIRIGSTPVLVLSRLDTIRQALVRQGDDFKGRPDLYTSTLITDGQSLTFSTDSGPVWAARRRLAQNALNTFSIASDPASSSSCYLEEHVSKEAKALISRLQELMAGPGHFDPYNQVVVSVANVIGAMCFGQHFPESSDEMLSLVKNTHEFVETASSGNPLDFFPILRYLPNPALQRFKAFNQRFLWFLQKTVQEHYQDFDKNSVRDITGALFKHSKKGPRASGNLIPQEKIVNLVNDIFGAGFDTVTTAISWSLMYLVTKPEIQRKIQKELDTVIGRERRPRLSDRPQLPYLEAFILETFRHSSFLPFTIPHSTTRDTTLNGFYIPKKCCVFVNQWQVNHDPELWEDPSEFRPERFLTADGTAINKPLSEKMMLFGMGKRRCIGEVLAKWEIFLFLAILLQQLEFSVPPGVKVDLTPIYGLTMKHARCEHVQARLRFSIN

[14] = Toxicity in ICR mouse assessed as change in brain to body weight ratio at 100 mg/kg, ip administered as single dose and measured after 2 weeks; format: organism-based; conditions: in vivo, 336 h
[15] = system: Mus musculus; test: Anti-depressant activity in ICR mouse assessed as reduction in immobility time at 60 mg/kg, po measured after 1 hr post treatment by tail suspension test; format: functional, organism-based
[16] = Toxicity in ICR mouse assessed as change in liver to body weight ratio at 100 mg/kg, ip administered as single dose and measured after 2 weeks; format: organism-based; conditions: in vivo, 336 h
[17] = Metabolic stability in mouse liver microsomes assessed as half life at 100 uM in presence of NADPH and measured for 5 to 60 mins by LC-MS/MS analysis; format: ADME, Microsome; conditions: time 5-60 min
[18] = system: SH-SY5Y; test: Cytotoxicity against human SH-SY5Y cells assessed as effect on cell viability at 1 to 10 uM incubated for 24 hrs by MTT assay; format: toxicity, cell-based; conditions: dose 1-10 µM
[19] = Half life in mouse at 60 mg/kg, po measured for 0.25 to 24 hrs; format: ADME, organism-based; conditions: in vivo, time 0.25-24 hrs
[20] = molecular target: CYP3A4 (Homo sapiens, UniProt P08684); test: Inhibition of CYP3A4 in human liver microsomes at 10 uM incubated for 10 mins in presence of NADPH by LC-MS/MS analysis relative to control; format: ADME, Microsome
Chain of CYP3A4 (P08684 whole entry): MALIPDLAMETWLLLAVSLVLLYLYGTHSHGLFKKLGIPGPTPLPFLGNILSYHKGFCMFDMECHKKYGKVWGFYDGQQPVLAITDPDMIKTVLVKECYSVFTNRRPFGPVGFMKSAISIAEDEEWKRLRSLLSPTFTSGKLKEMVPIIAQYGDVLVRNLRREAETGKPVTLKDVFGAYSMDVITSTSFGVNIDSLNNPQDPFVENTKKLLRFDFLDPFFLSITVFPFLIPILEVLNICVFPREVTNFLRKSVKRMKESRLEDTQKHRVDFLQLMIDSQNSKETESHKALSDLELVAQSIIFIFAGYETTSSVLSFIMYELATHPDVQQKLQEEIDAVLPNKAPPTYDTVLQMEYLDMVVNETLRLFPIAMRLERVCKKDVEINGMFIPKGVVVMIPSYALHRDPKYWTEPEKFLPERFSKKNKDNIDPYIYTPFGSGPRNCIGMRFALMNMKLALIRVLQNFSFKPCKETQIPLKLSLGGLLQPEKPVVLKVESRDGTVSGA

[21] = Half life in mouse at 10 mg/kg, iv measured for 0.083 to 24 hrs; format: ADME, organism-based; conditions: in vivo, time 0.083-24 hrs
[22] = molecular target: Voltage-gated inwardly rectifying potassium channel KCNH2 (Homo sapiens, UniProt Q12809); test: Inhibition of hERG transfected in CHO cells by manual patch-clamp assay; format: toxicity, cell-based
Chain of Voltage-gated inwardly rectifying potassium channel KCNH2 (Q12809 whole entry): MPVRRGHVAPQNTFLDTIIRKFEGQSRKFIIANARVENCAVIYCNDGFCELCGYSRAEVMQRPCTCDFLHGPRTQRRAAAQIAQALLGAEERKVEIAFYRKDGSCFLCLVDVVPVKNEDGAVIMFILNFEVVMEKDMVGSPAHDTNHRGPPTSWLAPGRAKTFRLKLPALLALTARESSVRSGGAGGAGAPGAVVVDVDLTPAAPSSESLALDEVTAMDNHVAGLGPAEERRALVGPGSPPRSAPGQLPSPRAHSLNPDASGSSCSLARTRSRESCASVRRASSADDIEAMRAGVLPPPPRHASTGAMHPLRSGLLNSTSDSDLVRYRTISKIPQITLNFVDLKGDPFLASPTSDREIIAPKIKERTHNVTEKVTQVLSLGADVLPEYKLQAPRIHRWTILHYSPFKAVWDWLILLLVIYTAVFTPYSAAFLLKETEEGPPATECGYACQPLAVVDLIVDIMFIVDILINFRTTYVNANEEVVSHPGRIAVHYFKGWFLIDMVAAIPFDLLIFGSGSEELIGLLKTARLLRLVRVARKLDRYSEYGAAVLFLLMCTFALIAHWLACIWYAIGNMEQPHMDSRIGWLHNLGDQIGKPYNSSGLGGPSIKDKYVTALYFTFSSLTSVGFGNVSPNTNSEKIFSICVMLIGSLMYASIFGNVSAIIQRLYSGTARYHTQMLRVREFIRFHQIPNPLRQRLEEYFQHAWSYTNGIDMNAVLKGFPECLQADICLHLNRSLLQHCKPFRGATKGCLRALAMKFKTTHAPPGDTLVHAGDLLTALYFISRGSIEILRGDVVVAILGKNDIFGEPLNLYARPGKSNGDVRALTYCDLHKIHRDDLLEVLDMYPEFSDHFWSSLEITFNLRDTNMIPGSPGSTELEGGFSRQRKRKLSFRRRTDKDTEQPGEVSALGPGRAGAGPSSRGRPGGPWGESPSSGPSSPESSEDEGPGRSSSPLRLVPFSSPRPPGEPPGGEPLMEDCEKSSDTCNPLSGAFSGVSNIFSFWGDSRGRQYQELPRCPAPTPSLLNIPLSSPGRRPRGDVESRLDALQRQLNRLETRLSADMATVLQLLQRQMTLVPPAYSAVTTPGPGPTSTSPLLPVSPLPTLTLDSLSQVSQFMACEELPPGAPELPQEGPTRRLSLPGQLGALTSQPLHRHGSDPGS

[23] = molecular target: CYP2C9 (Homo sapiens, UniProt P11712); test: Inhibition of CYP2C9 in human liver microsomes at 10 uM incubated for 10 mins in presence of NADPH by LC-MS/MS analysis relative to control; format: ADME, Microsome
Chain of CYP2C9 (P11712 whole entry): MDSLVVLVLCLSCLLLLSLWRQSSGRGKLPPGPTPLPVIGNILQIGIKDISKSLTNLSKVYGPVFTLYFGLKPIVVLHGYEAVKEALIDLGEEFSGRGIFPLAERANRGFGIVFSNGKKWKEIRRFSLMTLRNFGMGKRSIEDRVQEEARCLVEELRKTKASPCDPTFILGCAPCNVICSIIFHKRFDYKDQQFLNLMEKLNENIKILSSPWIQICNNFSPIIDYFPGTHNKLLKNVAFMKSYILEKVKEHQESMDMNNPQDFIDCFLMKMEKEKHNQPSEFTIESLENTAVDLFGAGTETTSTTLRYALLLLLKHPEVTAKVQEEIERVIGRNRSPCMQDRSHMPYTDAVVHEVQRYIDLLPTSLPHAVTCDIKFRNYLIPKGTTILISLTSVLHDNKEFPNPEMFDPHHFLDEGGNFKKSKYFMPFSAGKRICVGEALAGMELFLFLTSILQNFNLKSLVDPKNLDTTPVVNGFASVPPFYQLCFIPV

[24] = AUC (0 to infinity) in mouse at 10 mg/kg, iv measured for 0.083 to 24 hrs; format: ADME, organism-based; set-up: dose 10 mg/kg, time 0.083-24 hrs, route iv; conditions: in vivo
[25] = AUC (0 to infinity) in mouse at 60 mg/kg, po measured for 0.25 to 24 hrs; format: ADME, organism-based; set-up: time lower 0.25 hrs, dose 60 mg/kg, time upper 24 hrs, route po; conditions: in vivo
[26] = Cytotoxicity against human SH-SY5Y cells assessed as cell viability at 20 uM incubated for 24 hrs by MTT assay relative to control; format: toxicity, cell-based; conditions: read-out: Activity
[27] = Cmax in mouse at 60 mg/kg, po measured for 0.25 to 24 hrs; format: ADME, organism-based; set-up: time 0.25-24 hrs, dose 60 mg/kg, route po; conditions: in vivo
[28] = Cmax in mouse at 10 mg/kg, iv measured for 0.083 to 24 hrs; format: ADME, organism-based; set-up: time lower 0.083 hrs, dose 10 mg/kg, time upper 24 hrs, route iv; conditions: in vivo
[29] = Toxicity in ICR mouse assessed as change in spleen to body weight ratio at 100 mg/kg, ip administered as single dose and measured after 2 weeks; format: organism-based; conditions: in vivo, 336 h
[30] = Toxicity in ICR mouse assessed as animal survival at 100 mg/kg, ip administered as single dose measured upto 2 weeks; format: organism-based; conditions: in vivo
[31] = Toxicity in ICR mouse assessed as change in lungs to body weight ratio at 100 mg/kg, ip administered as single dose and measured after 2 weeks; format: organism-based; conditions: in vivo, 336 h
[32] = system: Mus musculus; test: Anti-depressant activity in ICR mouse assessed as reduction in immobility time at 30 mg/kg, po measured after 1 hr post treatment by tail suspension test; format: functional, organism-based
[33] = Metabolic stability in mouse liver microsomes assessed as parent compound remaining in presence of NADPH and measured after 60 mins by LC-MS/MS analysis
[34] = Cytotoxicity against human SH-SY5Y cells assessed as cell viability at 5 uM incubated for 24 hrs by MTT assay relative to control; format: toxicity, cell-based; conditions: read-out: Activity

CCc1nc(C2CCN(CCCCc3c[nH]c4ccc(C#N)cc34)CC2)cn1-c1ccc(Oc2ccc(Cl)cc2)cc1
Activity [1]: Toxic | Activity [2]: Toxic

CCCc1nc(C2CCN(CCCCc3c[nH]c4ccc(C#N)cc34)CC2)cn1-c1ccc(Oc2ccc(Cl)cc2)cc1
Activity [1]: Toxic | Activity [2]: Toxic

CCCCc1nc(C2CCN(CCc3c[nH]c4ccc(C#N)cc34)CC2)cn1-c1ccc(Oc2ccc(Cl)cc2)cc1
IC50 [3]: > 20 µM | IC50 [4]: > 0.1 µM

CCCCc1sc(C2CCN(CCCCc3cn(C)c4ccc(C#N)cc34)CC2)nc1-c1ccc(Oc2ccc(Cl)cc2)cc1
bioavailability [5]: 17.1% | Activity [6]: Non-Toxic | Activity [7]: Non-Toxic | Activity [8]: Toxic | clearance [9]: 7.09 mL/min/kg | Vd [10]: 1.04 L/kg | microsomal CLint at 100 µM [11]: 17.6 µL/min/mg | inhibition at 10 min, 10 µM [12]: 23.7% | inhibition at 10 min, 10 µM [13]: 17.2% | Activity [14]: Non-Toxic | Activity [15]: Active | Activity [16]: Non-Toxic | half-life at 100 µM [17]: 1.31 h | Activity [18]: Non-Toxic | half-life [19]: 5.55 h | inhibition at 10 min, 10 µM [20]: 16.3% | half-life [21]: 3.46 h | IC50 [22]: 7.2 µM | inhibition at 10 min, 10 µM [23]: 8.6% | AUC(0-inf) [24]: 23700 ng·h/mL | AUC(0-inf) [25]: 24700 ng·h/mL | viability at 24 h, 20 µM [26]: > 80% | Cmax [27]: 4940 ng/mL | Cmax [28]: 51700 ng/mL | Activity [29]: Non-Toxic | survival at 336 h [30]: 100% | Activity [31]: Non-Toxic

N#Cc1ccc2[nH]cc(CCCCN3CCN(c4ccc5oc(C(N)=O)cc5c4)CC3)c2c1 [VILAZODONE]
IC50 [3]: > 200 µM | Activity [32]: Active | microsomal CLint at 100 µM [11]: 49.3 µL/min/mg | inhibition at 10 min, 10 µM [12]: 51.3% | inhibition at 10 min, 10 µM [13]: 14.4% | half-life at 100 µM [17]: 0.468 h | inhibition at 10 min, 10 µM [20]: 29% | inhibition at 10 min, 10 µM [23]: 49.2%

C[C@]12CC[C@H]3[C@@H](CCC4=CC(=O)CC[C@@]43C)[C@@H]1CC[C@@H]2O [TESTOSTERONE]
remaining at 1 h [33]: 2.2%

CCCCc1nc(-c2ccc(OCCCN(CC)CC)cc2)cn1-c1ccc(Oc2ccc(Cl)cc2)cc1 [AZELIRAGON]
microsomal CLint at 100 µM [11]: 14.9 µL/min/mg | inhibition at 10 min, 10 µM [12]: 7.9% | inhibition at 10 min, 10 µM [13]: 0% | Activity [2]: Toxic | IC50 [4]: > 3 µM | half-life at 100 µM [17]: 1.55 h | inhibition at 10 min, 10 µM [20]: 0% | IC50 [22]: < 1 µM | inhibition at 10 min, 10 µM [23]: 3.7%

CCN(CC)CCOc1cccc(Nc2nc(-c3ccc(Cl)cc3)cc(-c3ccc(Cl)cc3)n2)c1
IC50 [3]: 10.5 µM

CCCCc1nc(C2CCN(CCCCc3c[nH]c4ccc(C#N)cc34)CC2)cn1-c1ccc(Oc2ccc(Cl)cc2)cc1
Activity [1]: Toxic | viability at 24 h, 5 µM [34]: 4.82% | Activity [2]: Toxic

CCCCCc1nc(C2CCN(CCCCc3cn(C)c4ccc(C#N)cc34)CC2)cn1-c1ccc(Oc2ccc(Cl)cc2)cc1
Activity [1]: Toxic | Activity [2]: Toxic

CCCCc1nc(C2CCN(Cc3c[nH]c4ccc(C#N)cc34)CC2)cn1-c1ccc(Oc2ccc(Cl)cc2)cc1
Activity [1]: Toxic | Activity [2]: Toxic

CCCCc1sc(C2CCN(CCc3c[nH]c4ccc(C#N)cc34)CC2)nc1-c1ccc(Oc2ccc(Cl)cc2)cc1
IC50 [3]: > 20 µM | IC50 [4]: > 0.1 µM

N#Cc1ccc2[nH]cc(CCCCN3CCC(c4cn(-c5ccc(Oc6ccc(Cl)cc6)cc5)c(C5CCC5)n4)CC3)c2c1
Activity [1]: Toxic | Activity [2]: Toxic

CCCCc1sc(C2CCN(CCCCc3c[nH]c4ccc(C#N)cc34)CC2)nc1-c1ccc(Oc2ccc(Cl)cc2)cc1
Activity [1]: Toxic | Activity [2]: Non-Toxic

Source: ChEMBL document CHEMBL5154874, “Discovery of novel dual RAGE/SERT inhibitors for the potential treatment of the comorbidity of Alzheimer's disease and depression” (Eur J Med Chem, 2022)
